# Values quoted from earlier work in patent US20100196443A1, “USE OF CORDYCEPS SPECIES OR EXTRACT THEREOF IN THE EGG PRODUCTION” (A P NUTRIPHARM PTE. LTD., priority 2007, published 2010).
# Test system: RNA cell
# Settings: Siev et al., 1969
smiles,measurement,value
"Nc1ncnc2c1ncn2[C@@H]1O[C@H](CO)C[C@H]1O [cordycepin, 3-deoxyadenosine]",nucleolar RNA synthesis,can inhibit nucleolar RNA synthesis
